Assay results reported in the NIST ThermoML archive (doi:10.1021/je800416y).
± gives the expanded uncertainty stated by the source.

Settings: 101.33 kPa, Liquid

CN(CCO)CCO [N-methyldiethanolamine]
Settings | mass density [kg/m3]
298.15 K | 1038.22 ± 1.2
303.15 K | 1034.49 ± 1.1
308.15 K | 1030.75 ± 1.1
313.15 K | 1026.99 ± 1.1
318.15 K | 1023.25 ± 1
323.15 K | 1019.47 ± 0.98
328.15 K | 1015.64 ± 0.94
333.15 K | 1011.8 ± 0.91
338.15 K | 1007.92 ± 0.87
